Experimental data: patent US20030158540A1, “METHOD FOR DECREASING CATHETER-ASSOCIATED BACTERIURIA” (priority 2002, published 2003)

What was measured:
[1] = tested on: urinary bag bacterial growth; conditions: daily decontamination with dilute bleach (5.25%); cited from earlier work
[2] = tested on: bacterial contamination of the drainage bag; conditions: 30 ml every eight hours; thirty-one patients; cited from earlier work
[3] = tested on: catheter-associated urinary tract infections; conditions: 30 ml in drainage bags every eight hours, cited from earlier work
[4] = tested on: types and levels of bacteria in the drainage bag; test: One-time instillation and drainage of irrigation solution into urinary drainage bags of long-term catheterized patients; urine cultures at 24-hour intervals; format: in vivo; conditions: for mean values for categories of colony count: score 3 = >100,000, 2 = 10,000 to 100,000, 1 = <10,000; for mean number of different types of organisms identified: about 50 ml one-time dose
From the text: The type of irrigation solution used constituted the independent variable. The irrigation solutions were sterile hydrogen peroxide and sterile distilled vinegar (as used herein, containing about 5 wt. % acetic acid). […] Hydrogen peroxide decomposes rapidly when exposed to light or organic matter. Vinegar is a weak acetic acid solution derived from alcohol by the action of Acetobacter. Vinegar is distilled to remove color and other impurities, yielding what is referred to as white vinegar.
The dependent variables of the investigation were the types and levels of bacteria in the drainage bag, at twenty-four hour intervals of incubation, during treatment conditions. A certified laboratory was contracted to determine the germicidal values of the solutions tested. After twenty-four hours of incubation at about 37° C. […], bacterial growth was recorded at twenty-four hour intervals. Laboratory protocol for reporting types and number of bacteria provided results by identification of the organism by species present in the specimen.
For the study, a total of fifty-seven subjects were initially identified to participate in the study: fifteen from three hospitals and forty-two from ten skilled nursing facilities. […] Patients who were febrile, acutely ill, receiving antibiotic therapy, or with symptoms of urinary tract infection were excluded based on a review of the patient's chart. Patients with other methods of urinary drainage, such as condom catheter drainage, superpubic catheterization, and intermittent urethral catheterization, were not considered. Moreover, because of the chance of cross-infection, infected and uninfected patients with indwelling urinary catheters who shared the same room or adjacent beds were not considered.
The patients were randomly assigned to three experimental groups: one group was designated a control group whose catheter drainage bags were not treated with an irrigation solution; the drainage bags of the remaining groups were treated with one of the two irrigation solutions investigated. The methods of data collection were verified prior to the commencement of the study by use of a literature review and institutional review board pre approval. All urine collection was made between 5:00 A.M. and 6:30 A.M. The urine specimens were promptly refrigerated and transported to the microbiology laboratory. Organisms and colony counts were identified by standard laboratory methods.
The research approach carried out in the study comprised four primary steps: (1) collection of urine from the catheter drainage bags for baseline cultures; (2) instillation of the irrigation solution into the drainage bags; (3) collection of urine from the drainage bags at 24-hour intervals; and (4) evaluation of the results of bacterial growth at 24-hour intervals. The initial concentration of bacteria in each drainage bag was determined prior to instillation of the irrigation solution. With regard to the patients in the groups whose drainage bags were treated with hydrogen peroxide or distilled vinegar, the drainage bags (approximate filled volume of about 50 to 150 ml) were emptied of any residual urine, after which the distal segment of the Foley catheter was clamped to avoid any possibility of reagent reflux into the patient's bladder.

[5] = tested on: bacteriuria / bag contamination; conditions: cited from earlier work
[6] = forty-eight hours after instillation

SMILES	bag cultures [1]	decrease in urinary bag bacterial growth [1]	bacterial contamination of the drainage bag [2]	catheter-associated urinary tract infections ([3]; P<0.05)	bags from which bacteria continued to be isolated [3]	mean values for categories of colony count ([4]; 00 h (baseline))	mean number of different types of organisms identified ([4]; 00 h (baseline, before instillation))	mean number of different types of organisms identified ([4]; 24 h)	mean values for categories of colony count ([4]; 24 h)	mean number of different types of organisms identified ([4]; 48 h)	mean values for categories of colony count ([4]; 48 h)	mean number of different types of organisms identified ([4]; 72 h)	mean values for categories of colony count ([4]; 72 h)	colonies of bacteria compared to the control group (post hoc analysis) [4, 6]	types of organisms compared to the control group (post hoc analysis) [4, 6]	rate of bacteriuria ([5]; instillation of H2O2, N=238)	rate of bag contamination ([5]; peroxide group, control group 34%, P≦0.05)
OCl [sodium hypochlorite]	≤ 50 CFU's/ml	76.5%															
OO [Hydrogen Peroxide, Hydrogen peroxide]			could be eliminated effectively	significant reduction	five of thirty	6.2	2.6	2.3	5.6	2.1	5.3	1.5	3.8	no statistically significant difference	no statistically significant difference	no reduction	17%
